Results as given in patent publication US4716162A, “Fused 5 ring heterocyclic compounds, their preparation, and their anti-arrhythmic and diuretic use” (Sankyo Company, Limited, priority 1984, dated 1987).
≈ marks a conversion by molar mass, not a printed value. Structures can show the parent of a compound that is named as a salt.

These molecules were tested on male mice of the DDY strain (assay: Diuretic effect: urine volume and sodium ion concentration by the filter paper method (Mineshita et al)). Settings: 100 mg/kg p.o.
Format: in vivo
Experimental: The diuretic test was performed on groups of 5 male mice of the DDY strain, each weighing between 26 and 30 g. The test solutions were prepared by dissolving the test compounds in physiological saline containing 0.3% w/v carboxymethylcellulose and were administered orally to the animals. The urine volume and sodium ion concentration were estimated by the filter paper method [Mineshita et al: Pharmacometrics, 4, 33 (1970)]. In Table 13, the increase of the urine volume and sodium ion concentration are shown as a percentage of the values of a control group to which no active compound was administered.

| SMILES | Urine Volume (increase as a percentage of the values of a control group) [%] | δNa^+ (increase of sodium ion concentration as a percentage of the values of a control group) [%] |
| --- | --- | --- |
| O=C(O)[C@@H]1C=C2c3ccccc3N3C(=O)C[C@H]4CC[C@@H]1[C@H]4[C@H]23 (relative stereo) [Compound No. 14, 1,2,2aβ,3α,11,11aβ,11bβ,11cα-Octahydro-10-oxo-10H-cyclopenta[d,e]indolo[3,2,1-i,j]quinoline-3α-carboxylic acid] | 231 | 245 |
| O=C(O)[C@@H]1C=C2c3cc(Br)ccc3N3C(=O)C[C@H]4CC[C@@H]1[C@H]4[C@H]23 (relative stereo) [Compound No. 18] | 86 | 168 |

These molecules were tested on rats with ischemic brains (assay: Improvement of brain function: time until recovery of the righting reflex in rats with ischemic brains). Settings: 10 mg/kg i.p.
Format: in vivo, male rats of the Wistar strain
Experimental: A test for recovery of brain function was performed using rats with ischemic brains. The bilaterial carotid arteries of male rats of the Wistar strain were ligated under anesthesia with thiopental (50 mg/kg, intraperitoneally) and the test compounds and a 0.5% w/v carboxymethylcellulose solution (vehicle) were intraperitoneally administered at the same time. The time until recovery of the righting relex was measured to give an index of the brain function. […] The known compound, Pentoxifylline, was tested in the same way, for comparison.

| SMILES | Ratio to Control (time until recovery of the righting reflex) |
| --- | --- |
| O=C(O)[C@@H]1C=C2c3cc(Br)ccc3N3C(=O)C[C@H]4CC[C@@H]1[C@H]4[C@H]23 (relative stereo) [Compound No. 18] | 0.84 |

Same assay, conditions: 30 mg/kg i.p.

| SMILES | Ratio to Control (time until recovery of the righting reflex) |
| --- | --- |
| O=C(O)[C@@H]1C=C2c3cc(Br)ccc3N3C(=O)C[C@H]4CC[C@@H]1[C@H]4[C@H]23 (relative stereo) [Compound No. 18] | 0.68 |
| CC(=O)CCCCn1c(=O)c2c(ncn2C)n(C)c1=O [Pentoxifylline, reference compound] | 0.82 |

What follows are molecules tested on arrhythmias induced by ischemic cardiac dysfunction caused by ligation of the coronary arteries of a perfusing heart (assay: Anti-arrhythmic effect: protection against arrhythmias induced by ischemia (coronary artery ligation and re-perfusion) of a perfusing heart, method of Opie et al). Settings: Rattus norvegicus, read-out: ED70 (concentration required for 70% suppression of the arrhythmias during ligation and after re-perfusion).
Design: species or system male rats of Sprague-Dawley strain
Experimental: The test was performed according to the method of L. H. Opie et al [Cardiovascular Research, 12, 212 (1978)] using male rats of Sprague-Dawley strain weighing between 230 and 330 g. The antiarrhythmic effect was estimated by the ability of the test compound administered intravascularly to protect against the arrhythmias induced by ischemic cardiac dysfunction caused by ligation of the coronary arteries of a perfusing heart.
The test compounds were dissolved in dimethyl sulfoxide, and the required amount of injectible solution was prepared by mixing this with Krebs-Henseleit solution. The degree of protecting effect is reported as the concentration (ED70) required for 70% suppression of the arrhythmias during ligation and after re-perfusion.

| SMILES | EC70 [µg/mL] |
| --- | --- |
| COC(=O)[C@@H]1Cc2c3n(c4ccccc24)C(=O)C[C@H]2CC[C@@H]1[C@@H]32 (relative stereo) [Compound No. 35, Methyl 1,2,2aβ,3α,4,11,11aβ,11bβ-octahydro-10-oxo-10H-cyclopenta[d,e]indolo[3,2,1-i,j]quinoline-3β-carboxylate] | 4.2 (≈ 13.6 µM) |

Same assay, conditions: rat perfusing heart, test compound administered intravascularly; read-out: ED70 (concentration required for 70% suppression of the arrhythmias during ligation and after re-perfusion)

| SMILES | EC70 [µg/mL] |
| --- | --- |
| N[C@@H]1Cc2c3n(c4ccccc24)C(=O)C[C@H]2CCC[C@@H]1[C@@H]32 (relative stereo) [Compound No. 106, 4β-amino-2,3,3aβ,4α,5,12,12aβ,12bβ-octahydrobenzo[d,e]indolo[3,2,1-i,j]quinolin-11(1H)-one maleate] | 1 |
| CC(C)N(CCC(C(N)=O)(c1ccccc1)c1ccccn1)C(C)C (centres unmarked) [Disopyramide, reference compound] | 10 (≈ 29.5 µM) |
| N[C@@H]1Cc2c3n(c4ccccc24)C(=O)C[C@H]2CC[C@@H]1[C@@H]32 (relative stereo) [Compound No. 55, 3β-Amino-1,2,2aβ,3α,4,11,11aβ,11bβ-octahydrocyclopenta[d,e]indolo[3,2,1-i,j]quinolin-10-one maleate] | 0.64 |
| CC[C@@]12CC[C@H]3[C@H](N)Cc4c(n(c5ccccc45)C(=O)C1)[C@H]32 (relative stereo) [Compound No. 59] | 0.23 (≈ 0.781 µM) |
| CCN(CC)CC(=O)Nc1c(C)cccc1C [Lidocaine, reference compound] | 5 (≈ 21.3 µM) |
| N[C@@H]1Cc2c3n(c4ccccc24)C(=O)C[C@H]2CCCC[C@@H]1[C@@H]32 (relative stereo) [Compound No. 228] | 0.9 (≈ 3.06 µM) |
| CN(C)[C@@H]1Cc2c3n(c4ccccc24)C(=O)C[C@H]2CC[C@@H]1[C@@H]32 (relative stereo) [Compound No. 65, 1,2,2aβ,3α,4,11,11aβ,11bβ-Octahydro-3β-dimethylaminocyclopenta[d,e]indolo[3,2,1-i,j]quinolin-10-one maleate] | 0.3 |
| CC[C@@]12CCC[C@H]3[C@H](N)Cc4c(n(c5ccccc45)C(=O)C1)[C@H]32 (relative stereo) [Compound No. 110] | 0.16 (≈ 0.519 µM) |
| C[C@@]12C3=C[C@@H](N)[C@@H]4CC[C@H](CC(=O)N1c1ccccc13)[C@@H]42 (relative stereo) [Compound No. 26, 3β-Amino-1,2,2aβ,3α,11,11aβ,11bβ,11cα-octahydro-11cα-methylcyclopenta[d,e]indolo[3,2,1-i,j]quinolin-10-one hydrochloride] | 0.9 |

Each molecule was assayed on heart beat rate in the ventricle of mice placed in chloroform gas (assay: Anti-arrhythmic effect, Block's method (chloroform-induced, ventricular heart beat rate by electrocardiogram)). Settings: Mus musculus, ip, read-out: ED50 % (effective = heart beat rate in the ventricle reduced to less than 400 beats/minute).
Format: in vivo, mice (ICR strain)
Experimental: Test procedures: (Block's method)
Onto a 2 liter desiccator were placed 150 ml of chloroform and this was stirred with a magnetic stirrer while being heating by an incandescent lamp. When the desiccator was saturated with chloroform gas, mice (ICR strain, body weight between 20 and 25 g) were placed therein for 2 minutes and then the chest was opened. Silver dipolar electrodes were contacted with the ventricles and electrocardiograms were taken for 1 minute. Within 10-20 minutes, the test compound was administered intraperitoneally in a carboxymethyl-cellulose solution as vehicle.

| SMILES | ED50 [mg/kg] |
| --- | --- |
| CC[C@]12CCC[C@@H]3[C@H]1c1c(c4cc(O)ccc4n1C(=O)C2)C[C@H]3C(=O)NNCCN1CCCC1 (relative stereo) [Compound No. 146, 7-Hydroxy-12aβ-ethyl-4β-{3-[2-(1-pyrrolidinyl)ethyl]carbazoyl}-2,3,3aβ,4α,5,12,12aβ,12bβ-octahydrobenzo[d,e]indolo[3,2,1-i,j]quinolin-11(1H)-one hemihydrate] | 22.5 |
| CC[C@@]12CCC[C@H]3[C@H](N)Cc4c(n(c5ccc(O)cc45)C(=O)C1)[C@H]32 (relative stereo) [Compound No. 197, 4β-Amino-12aβ-ethyl-7-hydroxy-2,3,3aβ,4α,5,12,12aβ,12bβ-octahydrobenzo[d,e]indolo[3,2,1-i,j]quinolin-11(1H)-one hemihydrate] | 22.5 |
| CCC[C@@]12CCC[C@H]3[C@H](N)Cc4c(n(c5ccccc45)C(=O)C1)[C@H]32 (relative stereo) [Compound No. 96] | 3.6 |
| CCC[C@@]12CCC[C@H]3[C@H](N)Cc4c(n(c5ccc(O)cc45)C(=O)C1)[C@H]32 (relative stereo) [Compound No. 198] | 4.2 |
| N[C@@H]1Cc2c3n(c4ccc(O)cc24)C(=O)C[C@@]2(c4ccccc4)CCC[C@@H]1[C@@H]32 (relative stereo) [Compound No. 162] | 12 |
| CC[C@@]12CCC[C@H]3[C@H](N)Cc4c(n(c5ccccc45)C(=O)C1)[C@H]32 (relative stereo) [Compound No. 110] | 14 |
